Test results taken from paper PMC11568214, “The impact of 9-azaglycophymine and phenylguanidine derivatives on the proliferation of various breast cancer cell lines in vitro and in vivo” (Scientific Reports, 2024).
Where “and” joins values, the source holds several entries; their conditions need not be identical. Equal entries are not always repeated. Entries after “also recorded” stand apart in the source; their conditions may differ. Where two headings read alike, the source gives them in different places.

Experiments:
184B5 = test: CV cell viability assay on healthy breast cell line; type: cell-based; details: Homo sapiens, 72 h
Description: (§1) The cell lines were cultured in standard growth medium consisting of RPMI1640 medium supplemented with 10% (v/v) FCS, 1% (v/v) penicillin/streptomycin and 1% (v/v) glutamine[25]–[29]. Two additional cell lines were included in the study representing non-tumorigenic (“healthy”) breast cells, namely 184B5 and MCF10A. These cell lines were cultured using an Endopan 3 medium kit in accordance with the manufacturer’s instruction. For passaging and seeding, cells were treated as previously described. In brief, seeding was done in low density with 6 × 10^3 cells/100 µL in 96-well plates, and with 1.5 × 10^5 cells/1 mL in 6-well plates. […]
(§2) For initial testing of the cytotoxic effect of the available glycophymine compounds (Table S2), cells were treated with compound in three concentrations: 1, 10 and 50 µM. […] Subsequently, the cell viability was determined by using the crystal violet (CV) assay. […]
(§3) For CV assays, after 72 h treatment, the treatment medium was discarded from the 96-well plates, and the cells were washed using 50 µL of PBS. […] Finally, the absorbance was measured at 570 nm by using a SpectraMax M5 plate reader (Molecular Devices, California, USA) and at 670 nm as background wavelength. […] Based on that, IC50 values and standard deviations were calculated for each replicate individually.

MCF-10A = test: as above; type: cell-based; details: Homo sapiens, 72 h
Description: as §1, §2, §3

[1] = system: MCF-7, MDA-MB-468, BT-474 and HCC1937 breast cancer cells; test: Fast screening / CV cell viability, breast cancer cell line panel; type: cell-based, human; parameters: reduction of cell viability: concentration or dose not given beside the values
Description: For initial testing of the cytotoxic effect of the available glycophymine compounds (Table S2), cells were treated with compound in three concentrations: 1, 10 and 50 µM. Cells were seeded in 96-well plates and allowed to adhere overnight. Then they were treated for 72 h under standard culture conditions. […] For IC50 determination, the compounds were tested at seven concentrations (0.78, 1.56, 3.13, 6.25, 12.5, 25 and 50 µM). Subsequently, the cell viability was determined by using the crystal violet (CV) assay. Moreover, the selected compounds were tested against the mouse breast cancer cell line 4T1 (TNBC) as well. The compounds were prepared initially to obtain a stock solution of 20 mM in DMSO. Later, the working solutions were prepared by mixing the required amount of DMSO stock with the optimal medium for each cell line. The DMSO concentration in the final solution was always maintained lower than 0.5% to avoid any DMSO-derived side effects.
For CV assays, after 72 h treatment, the treatment medium was discarded from the 96-well plates, and the cells were washed using 50 µL of PBS. Cells were fixed by adding 50 µL of 4% (v/v) paraformaldehyde (PFA) in PBS for 15 min at room temperature (RT). Afterwards, PFA was discarded, and the plates were dried for 15 min at RT. 50 µL of CV working solution (0.1% w/v CV in PBS) were added to the wells, followed by 15 min incubation at RT. Subsequently, the CV solution was discarded, and the plates were washed using aqua bidest. (ddH2O) to remove any remaining CV solution. The plates were left to dry overnight at RT, and then 50 µL of 33% (v/v) acetic acid in ddH2O were added to each well. Finally, the absorbance was measured at 570 nm by using a SpectraMax M5 plate reader (Molecular Devices, California, USA) and at 670 nm as background wavelength. […] Additionally, gefitinib, an approved EGFR inhibitor of the quinazoline family, was tested as anti-proliferative positive control. The data represent the mean ± standard deviation derived from three independent biological replicates. Dose–response curves were generated by four-parametric non-linear regression analysis using the GraphPad Prism software (version: 10.1, San Diego, CA, USA). Based on that, IC50 values and standard deviations were calculated for each replicate individually.

4T1 = test: Pan-caspase activation, ApoStat staining, flow cytometry; type: cell-based, mouse; parameters: key: ↑: induction; ↓: inhibition; ↔: no effect; details: 4T1, IC50 for 72 h
Description: Cells were seeded in 6-well plates and incubated for 24 h under standard culture conditions. […] For the analyses of pan-caspase activation, the cell suspension was centrifuged for 3 min at 800 rpm, and the cell pellet was stained with 100 µL of ApoStat working solution (1 µL of ApoStat and 5% (v/v) FCS in 100 µL of PBS). Cells were incubated for 30 min under standard culture conditions. The cell suspension was centrifuged for 3 min at 800 rpm, and the cell pellet was washed with 1 mL of fresh PBS. Finally, all samples were analyzed by using flow cytometry (FACSAria III, BD Biosciences, New Jersey, USA).

[2] = Urine analysis with Multistix urine test stripes in the 4T1 in vivo study; parameters: species or system BALB/c mice; key to Glucose (urine) / Blood (urine): -: marker was not detectable in the respective urine sample; +: marker was detected
Description: On day 6, the mice were assigned to the study groups using a stratified randomization approach, ensuring that the mean tumor volumes were as similar as possible across all groups. […] The vehicle was 4% (v/v) DMSO in PBS, and the administration route was intraperitoneal (i.p.). The animals were treated daily on days 6–10 (starting from the day when tumors became palpable), 13–17 and day 20. Animals were visually examined daily, and urine samples were collected on the first and last day of treatment and analyzed by Multistix urine test stripes (Siemens Healthineers, Erlangen, Germany). On day 21 of the experiment, the mice were sacrificed using cervical dislocation. Following the sacrifice, the tumor diameters were measured using a caliper. The tumor volume (V) was then calculated using the formula V = L*W^2*0.52[36], where L represents the longest diameter and W the shortest diameter of the tumor.

O=c1[nH]c(Nc2ccc([N+](=O)[O-])cc2)nc2ccccc12 [Compound 19, 4′-nitro-9-aza-glycophymine] gave an IC50 (184B5) of roughly 4 µM, an IC50 (MCF-10A) of roughly 4 µM and an IC50 ([1]; 72 h, CV assay, across cell lines, read-out: IC50 values against the breast cancer cell lines) of 4 to 6 µM. The “concentration below which active in cytotoxicity screening” value ([1]; 72 h, initial screening) was “below 10 µM”, the “anti-proliferative / cytotoxic effect” value ([1]; 72 h, screening at 1, 10 and 50 µM) was “significantly reduced cell proliferation” and the IC50 ([1]; Homo sapiens, 72 h, CV assay, across cell lines, read-out: IC50 values against the breast cancer cell lines) was roughly 4 µM. The IC50 ([1]; Homo sapiens, 72 h, read-out: IC50 values (National Cancer Institute guideline criterion)) was less than 30 µg/mL, the “reduction of cell viability” value ([1]; after 72 h of treatment, initial screening) was no less than 50% and the Pan-caspases (4T1) was “↑”. For the same compound, the “Bilirubin (urine)” value ([2]; 5 mg/kg, Day 6, three mice) was “small”, the “Blood (urine)” value ([2]; 5 mg/kg, Day 6, three mice) was “-” and the “Ketones (urine)” value ([2]; 5 mg/kg, Day 6, three mice) was 10 mg/dL. For the same compound, the “Leucocytes (urine)” value ([2]; 5 mg/kg, Day 6, three mice) was 25 cells/µL, the “Specific gravity (urine)” value ([2]; 5 mg/kg, Day 6, three mice) was 1.025 and 1.000 and 1.030 and the “pH (urine)” value ([2]; 5 mg/kg, Day 6, three mice) was 6 and 5. The “Bilirubin (urine)” value ([2]; 5 mg/kg, Day 20, three mice) was “small”, the “Blood (urine)” value ([2]; 5 mg/kg, Day 20, three mice) was “-” and the “Glucose (urine)” value ([2]; 5 mg/kg, Day 20, three mice) was “-”. For the same compound, the “Ketones (urine)” value ([2]; 5 mg/kg, Day 20, three mice) was 10 mg/dL, the “Leucocytes (urine)” value ([2]; 5 mg/kg, Day 20, three mice) was 25 cells/µL and the “Proteins (urine)” value ([2]; 5 mg/kg, Day 20, three mice) was 100 mg/dL. For the same compound, the “Specific gravity (urine)” value ([2]; 5 mg/kg, Day 20, three mice) was 1.030 and 1.025, the “pH (urine)” value ([2]; 5 mg/kg, Day 20, three mice) was 6 and the “Bilirubin (urine)” value ([2]; 20 mg/kg, Day 6, three mice) was “small”. The “Blood (urine)” value ([2]; 20 mg/kg, Day 6, three mice) was “-”, the “Ketones (urine)” value ([2]; 20 mg/kg, Day 6, three mice) was 10 mg/dL and the “Leucocytes (urine)” value ([2]; 20 mg/kg, Day 6, three mice) was 25 cells/µL. For the same compound, the “Proteins (urine)” value ([2]; 20 mg/kg, Day 6, three mice) was 30 mg/dL, the “Specific gravity (urine)” value ([2]; 20 mg/kg, Day 6, three mice) was 1.025 and 1.030 and the “Uroglobin (urine)” value ([2]; 20 mg/kg, Day 6, three mice) was 4 mg/dL. For the same compound, the “pH (urine)” value ([2]; 20 mg/kg, Day 6, three mice) was 6 and 5, the “Bilirubin (urine)” value ([2]; 20 mg/kg, Day 20, three mice) was “small; also recorded: moderate” and the “Blood (urine)” value ([2]; 20 mg/kg, Day 20, three mice) was “-”. For the same compound, the “Ketones (urine)” value ([2]; 20 mg/kg, Day 20, three mice) was 10 mg/dL and 5 mg/dL, the “Specific gravity (urine)” value ([2]; 20 mg/kg, Day 20, three mice) was 1.030 and 1.025 and the “Uroglobin (urine)” value ([2]; 20 mg/kg, Day 20, three mice) was 4 mg/dL and 8 mg/dL. The “pH (urine)” value ([2]; 20 mg/kg, Day 20, three mice) was 5 and 6.
